Laboratory results: ChEMBL document CHEMBL3132769, “Fragment growing to retain or alter the selectivity of anchored kinase hinge-binding fragments” (Medchemcomm, 2014)

How the values were obtained:
[1] = molecular target: Fibroblast growth factor receptor 4 (Homo sapiens) (UniProt P22455); assay: Inhibition of human FGFR4 catalytic domain expressed in baculovirus assessed as substrate phosphorylation using fluorescence-labelled peptides as substrate at 0.2 uM after 90 mins by microfluidic peptide phosphorylation assay
[2] = molecular target: T1, cGMP-dependent protein kinase 1 (Homo sapiens) (UniProt Q13976); assay: Inhibition of human full length PKG-1a expressed in baculovirus assessed as substrate phosphorylation using fluorescence-labelled peptides as substrate at 0.2 uM after 90 mins by microfluidic peptide phosphorylation assay
T1 sequence (whole entry): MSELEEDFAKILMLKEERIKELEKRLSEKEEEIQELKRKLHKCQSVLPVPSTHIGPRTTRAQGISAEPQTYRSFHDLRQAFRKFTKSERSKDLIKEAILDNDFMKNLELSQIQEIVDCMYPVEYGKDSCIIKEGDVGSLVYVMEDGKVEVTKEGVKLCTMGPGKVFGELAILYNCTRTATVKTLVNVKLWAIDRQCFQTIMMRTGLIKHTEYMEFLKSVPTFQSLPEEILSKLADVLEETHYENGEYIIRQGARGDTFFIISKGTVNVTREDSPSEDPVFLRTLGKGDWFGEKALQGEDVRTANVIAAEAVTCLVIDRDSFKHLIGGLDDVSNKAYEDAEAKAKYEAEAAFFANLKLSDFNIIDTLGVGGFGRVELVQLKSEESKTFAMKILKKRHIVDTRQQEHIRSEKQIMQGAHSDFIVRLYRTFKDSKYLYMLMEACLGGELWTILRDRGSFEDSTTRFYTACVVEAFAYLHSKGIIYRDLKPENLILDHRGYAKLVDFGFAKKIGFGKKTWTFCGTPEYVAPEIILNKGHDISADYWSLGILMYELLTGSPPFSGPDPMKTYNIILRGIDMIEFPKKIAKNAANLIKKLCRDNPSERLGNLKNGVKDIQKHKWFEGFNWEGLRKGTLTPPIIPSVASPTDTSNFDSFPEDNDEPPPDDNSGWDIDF

[3] = molecular target: T2, Serine/threonine-protein kinase Nek2 (Homo sapiens) (UniProt P51955); assay: Inhibition of human full length NEK2 expressed in baculovirus assessed as substrate phosphorylation using fluorescence-labelled peptides as substrate at 420 uM after 90 mins by microfluidic peptide phosphorylation assay
T2 sequence (whole entry): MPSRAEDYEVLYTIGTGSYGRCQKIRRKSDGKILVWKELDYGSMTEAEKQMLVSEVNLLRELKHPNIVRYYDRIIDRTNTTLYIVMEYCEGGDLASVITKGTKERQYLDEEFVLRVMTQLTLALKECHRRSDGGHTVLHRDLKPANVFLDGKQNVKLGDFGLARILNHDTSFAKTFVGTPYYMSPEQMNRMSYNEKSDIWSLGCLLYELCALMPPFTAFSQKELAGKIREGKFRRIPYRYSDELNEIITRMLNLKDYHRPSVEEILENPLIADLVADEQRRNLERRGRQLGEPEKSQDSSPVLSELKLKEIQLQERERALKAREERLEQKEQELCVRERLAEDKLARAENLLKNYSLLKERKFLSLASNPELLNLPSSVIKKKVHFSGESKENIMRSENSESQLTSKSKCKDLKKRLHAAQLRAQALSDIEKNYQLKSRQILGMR

[4] = molecular target: Glycogen synthase kinase-3 beta (Homo sapiens) (UniProt P49841); assay: Inhibition of human full length GSK-3 beta expressed in baculovirus assessed as substrate phosphorylation using fluorescence-labelled peptides as substrate at 9 uM after 90 mins by microfluidic peptide phosphorylation assay
[5] = molecular target: T1, cGMP-dependent protein kinase 1 (Homo sapiens); assay: Inhibition of human full length PKG-1beta expressed in baculovirus assessed as substrate phosphorylation using fluorescence-labelled peptides as substrate at 9 uM after 90 mins by microfluidic peptide phosphorylation assay
[6] = molecular target: T3, Serine/threonine-protein kinase DCLK2 (Homo sapiens) (UniProt Q8N568); assay: Inhibition of human full length DCAMKL2 expressed in baculovirus assessed as substrate phosphorylation using fluorescence-labelled peptides as substrate at 0.1 uM after 90 mins by microfluidic peptide phosphorylation assay
T3 sequence (whole entry): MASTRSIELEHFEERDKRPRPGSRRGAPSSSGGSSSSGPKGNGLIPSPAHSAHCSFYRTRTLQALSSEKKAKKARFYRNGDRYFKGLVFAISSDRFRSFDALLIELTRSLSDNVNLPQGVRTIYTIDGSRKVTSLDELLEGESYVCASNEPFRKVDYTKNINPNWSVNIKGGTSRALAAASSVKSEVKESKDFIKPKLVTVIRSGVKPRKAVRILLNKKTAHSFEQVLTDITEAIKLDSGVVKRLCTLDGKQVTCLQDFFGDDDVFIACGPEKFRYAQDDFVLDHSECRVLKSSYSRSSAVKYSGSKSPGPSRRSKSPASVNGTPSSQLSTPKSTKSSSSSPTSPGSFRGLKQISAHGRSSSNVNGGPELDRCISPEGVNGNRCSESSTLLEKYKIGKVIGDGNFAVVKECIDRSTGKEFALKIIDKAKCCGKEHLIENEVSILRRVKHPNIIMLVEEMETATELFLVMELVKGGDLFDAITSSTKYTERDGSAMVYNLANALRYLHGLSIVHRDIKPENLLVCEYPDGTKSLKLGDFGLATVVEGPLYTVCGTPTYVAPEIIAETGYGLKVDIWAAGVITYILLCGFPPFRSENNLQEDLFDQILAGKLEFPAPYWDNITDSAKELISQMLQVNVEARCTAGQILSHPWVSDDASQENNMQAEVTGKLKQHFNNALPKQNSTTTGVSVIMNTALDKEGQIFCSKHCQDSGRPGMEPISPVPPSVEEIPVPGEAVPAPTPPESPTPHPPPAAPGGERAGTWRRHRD

[7] = molecular target: Proto-oncogene tyrosine-protein kinase Src (Homo sapiens) (UniProt P12931); assay: Inhibition of human full length SRC expressed in baculovirus assessed as substrate phosphorylation using fluorescence-labelled peptides as substrate at 0.1 uM after 90 mins by microfluidic peptide phosphorylation assay
[8] = molecular target: T4, Mitogen-activated protein kinase 13 (Homo sapiens) (UniProt O15264); assay: Inhibition of human full length p38 delta expressed in Escherichia coli cell assessed as substrate phosphorylation using fluorescence-labelled peptides as substrate at 1000 uM after 90 mins by microfluidic peptide phosphorylation assay
T4 sequence (whole entry): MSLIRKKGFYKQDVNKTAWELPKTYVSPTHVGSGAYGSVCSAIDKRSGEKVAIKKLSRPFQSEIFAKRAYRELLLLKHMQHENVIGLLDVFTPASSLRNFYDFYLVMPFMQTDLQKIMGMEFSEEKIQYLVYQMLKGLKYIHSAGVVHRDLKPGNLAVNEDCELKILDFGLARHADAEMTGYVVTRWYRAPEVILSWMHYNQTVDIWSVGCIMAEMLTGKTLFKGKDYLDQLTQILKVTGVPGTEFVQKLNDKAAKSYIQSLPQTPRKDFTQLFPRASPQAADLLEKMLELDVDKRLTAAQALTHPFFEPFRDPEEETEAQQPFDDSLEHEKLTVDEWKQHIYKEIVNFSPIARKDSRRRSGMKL

[9] = molecular target: Protein kinase C gamma type (Homo sapiens) (UniProt P05129); assay: Inhibition of human truncated PKC gamma expressed in baculovirus assessed as substrate phosphorylation using fluorescence-labelled peptides as substrate at 1000 uM after 90 mins by microfluidic peptide phosphorylation assay

Sequence of Fibroblast growth factor receptor 4 (Homo sapiens) (P22455 22-802 limits assumed): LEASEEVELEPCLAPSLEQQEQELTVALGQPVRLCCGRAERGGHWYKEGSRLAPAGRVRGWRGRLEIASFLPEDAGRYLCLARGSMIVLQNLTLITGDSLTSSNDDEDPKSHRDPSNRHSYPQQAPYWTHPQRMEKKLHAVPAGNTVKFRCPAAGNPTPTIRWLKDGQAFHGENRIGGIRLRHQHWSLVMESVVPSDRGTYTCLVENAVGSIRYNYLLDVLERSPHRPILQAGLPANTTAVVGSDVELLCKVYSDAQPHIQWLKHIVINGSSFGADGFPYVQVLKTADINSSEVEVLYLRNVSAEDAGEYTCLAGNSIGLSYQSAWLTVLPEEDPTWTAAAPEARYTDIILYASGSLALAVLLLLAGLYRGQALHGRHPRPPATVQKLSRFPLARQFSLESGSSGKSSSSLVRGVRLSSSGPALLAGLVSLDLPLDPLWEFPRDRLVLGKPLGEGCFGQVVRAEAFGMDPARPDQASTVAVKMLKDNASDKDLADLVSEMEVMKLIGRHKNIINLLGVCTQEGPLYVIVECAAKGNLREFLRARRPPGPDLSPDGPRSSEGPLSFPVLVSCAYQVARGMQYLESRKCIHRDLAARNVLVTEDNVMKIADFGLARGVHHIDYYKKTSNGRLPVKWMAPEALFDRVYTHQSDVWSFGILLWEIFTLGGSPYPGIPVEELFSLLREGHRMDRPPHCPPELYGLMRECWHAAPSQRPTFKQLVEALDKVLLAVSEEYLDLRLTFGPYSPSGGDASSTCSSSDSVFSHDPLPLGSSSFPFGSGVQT
Sequence of Glycogen synthase kinase-3 beta (Homo sapiens) (P49841 whole entry, looked up): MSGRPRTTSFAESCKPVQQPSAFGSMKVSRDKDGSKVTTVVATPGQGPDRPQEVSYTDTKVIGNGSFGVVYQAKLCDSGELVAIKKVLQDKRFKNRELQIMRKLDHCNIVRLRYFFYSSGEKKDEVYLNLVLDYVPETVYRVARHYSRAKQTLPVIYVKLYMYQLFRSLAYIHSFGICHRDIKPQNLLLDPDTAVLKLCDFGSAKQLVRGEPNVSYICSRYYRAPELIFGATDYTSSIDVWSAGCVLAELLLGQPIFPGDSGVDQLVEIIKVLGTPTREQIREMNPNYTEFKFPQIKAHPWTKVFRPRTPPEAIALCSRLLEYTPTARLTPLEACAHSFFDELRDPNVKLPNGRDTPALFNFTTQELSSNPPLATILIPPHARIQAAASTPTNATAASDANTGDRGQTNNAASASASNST
Sequence of Proto-oncogene tyrosine-protein kinase Src (Homo sapiens) (P12931 2-536 limits assumed): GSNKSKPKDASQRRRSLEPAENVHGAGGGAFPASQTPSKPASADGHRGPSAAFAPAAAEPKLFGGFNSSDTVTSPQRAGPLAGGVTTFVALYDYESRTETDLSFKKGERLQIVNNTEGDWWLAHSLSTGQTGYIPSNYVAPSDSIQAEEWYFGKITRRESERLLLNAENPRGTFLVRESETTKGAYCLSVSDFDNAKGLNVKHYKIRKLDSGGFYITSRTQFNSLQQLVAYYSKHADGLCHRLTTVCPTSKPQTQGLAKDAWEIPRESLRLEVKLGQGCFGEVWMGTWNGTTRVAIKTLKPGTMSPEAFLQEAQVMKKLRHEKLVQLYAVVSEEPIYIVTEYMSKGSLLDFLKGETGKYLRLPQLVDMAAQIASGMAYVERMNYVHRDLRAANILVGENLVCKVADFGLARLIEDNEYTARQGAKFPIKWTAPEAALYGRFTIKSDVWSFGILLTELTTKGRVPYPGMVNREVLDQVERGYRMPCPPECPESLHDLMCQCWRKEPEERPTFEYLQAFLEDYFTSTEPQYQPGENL

Clc1ccc(C2(c3ccc(-c4ncnc5[nH]cnc45)cc3)CCNCC2)cc1
inhibition [1]: 1.5%
inhibition [2]: 88.5%

c1nc(N2CCOCC2)c2nc[nH]c2n1
inhibition [3]: 27%

NCC1CN(c2ncnc3[nH]c4cnccc4c23)CCO1 (centres undefined)
inhibition [4]: 94%
inhibition [5]: 12.5%

C[C@H](CN(C)C)Oc1nc(Nc2cc3cccc(Cl)c3cn2)cnc1C#N
inhibition [6]: 6%
inhibition [7]: 3%

c1cnc2[nH]ccc2c1
inhibition [8]: 51%
inhibition [9]: 57%
